This is an account of results in patent US9771332B2, “2-thiopyrimidinones” (Pfizer Inc., priority 2015, dated 2017).

Structures can show the parent of a compound that is named as a salt. Where two headings read alike, the source gives them in different places.

The target in one data set is T1, MPO (Homo sapiens, UniProt P05164).
T1 construct: endogenous in cells; host or cells: human whole blood leukocytes, LPS-stimulated
The data set can be described thus: Human Whole Blood Assay for Irreversible Inhibition of MPO. Format: cell-based. As to conditions: LPS-stimulated human whole blood, 4 hour incubation; irreversible inhibition of active MPO. The procedure:
To measure the inhibition of MPO activity in a biological system in the present invention, bioassays were performed with human whole blood that was collected from medication-free, human volunteers in heparin treated tubes (APP Pharmaceuticals, LLC, cat # NDC#63323-047-10, #4710). Blood was aliquoted and treated with different concentrations of the MPO inhibitor or vehicle control and co-treated with or without bacterial lipopolysaccharide (LPS, InVivogen) to stimulate blood leukocytes to simultaneously generate H2O2 (a required MPO substrate) and the release of MPO. After a 4 hour incubation at room temperature the plasma fraction was collected following a 2000×g centrifugation at 4° C.
The plasma fraction was divided in two for analysis of total MPO and active MPO. The total MPO content was determined using a standard sandwich ELISA (capture and detection antibodies: Cell Sciences, Cat# HP9048, and Cell Sciences, Cat# HM2164, clone 266-6K1) and calculated relative to a standard curve of purified MPO (myeloperoxidase, Calbiochem, cat#475911) that was prepared by dilution in the autologous donor plasma. The MPO activity is determined by capturing the total MPO from plasma using the capture step as described for the above ELISA method. […] The MPO activity of the captured material was compared to that obtained with a standard curve of purified MPO (myeloperoxidase, Calbiochem, cat#475911) that was prepared in autologous donor plasma. The percent of ‘active’ myeloperoxidase for each sample was calculated from the ratio of the active myeloperoxidase in the Amplex Red assay and the total myeloperoxidase from the ELISA for each sample. A dose response curve of the compound concentration versus MPO activity was then plotted to determine the IC50 value.

The target of a further data set is T2, hERG potassium channel (Homo sapiens, UniProt Q12809).
T2 construct: host or cells: CHO cells (PrecisiON hERG-CHO Recombinant Cell Line)
T2 sequence (Q12809 whole entry): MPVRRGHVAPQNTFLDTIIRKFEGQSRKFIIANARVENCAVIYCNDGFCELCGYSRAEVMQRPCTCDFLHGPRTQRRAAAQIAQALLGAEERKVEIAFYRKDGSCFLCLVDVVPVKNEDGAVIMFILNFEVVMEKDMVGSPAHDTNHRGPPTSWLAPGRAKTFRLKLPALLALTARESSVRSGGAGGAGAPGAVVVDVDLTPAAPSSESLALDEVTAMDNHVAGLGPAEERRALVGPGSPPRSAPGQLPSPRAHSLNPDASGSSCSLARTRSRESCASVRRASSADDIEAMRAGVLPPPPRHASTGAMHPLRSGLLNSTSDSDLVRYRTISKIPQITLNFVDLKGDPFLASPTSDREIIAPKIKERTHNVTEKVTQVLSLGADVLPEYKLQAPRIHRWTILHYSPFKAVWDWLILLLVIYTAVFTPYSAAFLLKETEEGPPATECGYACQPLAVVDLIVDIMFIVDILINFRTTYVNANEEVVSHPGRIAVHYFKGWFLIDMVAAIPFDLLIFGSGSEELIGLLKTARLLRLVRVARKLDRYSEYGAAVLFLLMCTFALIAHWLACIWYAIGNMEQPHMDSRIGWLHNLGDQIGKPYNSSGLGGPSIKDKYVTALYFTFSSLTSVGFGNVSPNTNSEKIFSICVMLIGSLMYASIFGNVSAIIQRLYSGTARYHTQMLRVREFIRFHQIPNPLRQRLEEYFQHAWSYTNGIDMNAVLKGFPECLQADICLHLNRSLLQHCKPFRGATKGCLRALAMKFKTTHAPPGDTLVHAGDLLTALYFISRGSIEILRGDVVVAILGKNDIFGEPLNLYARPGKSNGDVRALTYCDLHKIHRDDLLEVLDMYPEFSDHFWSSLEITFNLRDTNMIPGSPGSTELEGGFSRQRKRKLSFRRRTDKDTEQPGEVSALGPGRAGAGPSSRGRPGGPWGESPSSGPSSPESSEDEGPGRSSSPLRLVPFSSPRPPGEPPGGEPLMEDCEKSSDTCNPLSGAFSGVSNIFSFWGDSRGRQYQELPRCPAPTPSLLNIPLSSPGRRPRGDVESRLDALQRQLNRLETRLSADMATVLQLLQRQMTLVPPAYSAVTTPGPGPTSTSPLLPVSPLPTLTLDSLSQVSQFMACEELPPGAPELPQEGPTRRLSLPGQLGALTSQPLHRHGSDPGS
The data set can be described thus: hERG Assay (Qpatch HT automated patch clamp, hERG-transfected CHO cells). Format: cell-based. As to conditions: for Therapeutic ratio hERG IC50/MPO IC50: hERG IC50 divided by MPO IC50 in human whole blood; for inhibition at 5 min, 300 µM: at 300 uM; for inhibition at 5 min, 100 µM: at 100 uM. The protocol:
All testing was carried out in CHO cells transfected with the hERG gene purchased from Millipore (PrecisiON hERG-CHO Recombinant Cell Line CYL3038). The cell line was grown in DMEM/F-12, GlutaMAX™ with 10% fetal bovine serum, 1% Penicillin-Streptomycin, 1% Geneticin and 1% of 1M HEPES buffer solution, and maintained at approximately 37° C. in a humidified atmosphere containing 5% carbon dioxide. The cells were passaged every 3-5 days based on confluency. On the day of the experiment, 50%-80% confluent cells were harvested from a 175 cm^2 culture flask using Detachin™. After 10 minutes of exposure to Detachin™ at 37° C., the cells were centrifuged for 1 minute at 1000 RPM. The supernatant was removed and the cell pellet was reconstituted in 5-8 mL of serum free media with 2.5% of 1M HEPES, placed on the Qstirrer™, and allowed to recover. After a ˜30 minute recovery period, experiments were initiated.
hERG current was elicited and recorded using the automated Qpatch HT™ system (as described in Kutchinsky J, Friis S, Asmild M, et al. Characterization of potassium channel modulators with QPatch automated patch-clamp technology: system characteristics and performance. Assay Drug Dev Technol 2003; 1(5):685-93). The suspended cells in the Qstirrer™ were transferred to 48 individual recording chambers on a Qplate 48™ containing extracellular recording saline composed of (in mM): 138 NaCl, 5.3 KCl, 1.3 CaCl2, 0.5 MgCl2, 5.6 Glucose, 5 HEPES, 0.4 MgSO4, 0.44 KH2PO4, 4.2 NaHCO3, 0.34 Na2HPO4, and adjusted to pH 7.4±0.1 with NaOH. The intracellular recording saline was composed of (in mM): 130 KCl, 1 MgCl2, 10 HEPES, 5 Mg-ATP, and 5 EGTA, and adjusted to pH 7.2±0.1 with KOH. Membrane currents were recorded at room temperature.
hERG current was elicited from a holding potential of −80 mV with a voltage step to +30 mV for 1 second, followed by a ramp back to −80 mV at 0.55 mV/ms. Test pulses were delivered at a frequency of 0.25 Hz. Up to 4 different concentrations were studied on each cell, each exposure lasting 5 minutes or until steady-state effects were observed. In a separate set of experiments, a full concentration-response relationship and an IC50 was determined for a positive control, cisapride, (Jules C. Hancox, Mark J. McPate, Aziza El Harchi, Yi hong Zhang, The hERG potassium channel and hERG screening for drug-induced torsades de pointes, Pharmacology & Therapeutics, Volume 119, Issue 2, August 2008, Pages 118-132).
Using Sophion Qpatch Assay Software, the amplitude of the peak outward hERG current upon repolarizing ramp was measured. Current amplitude was determined by taking the average of the last 5 current peaks under each treatment condition. Percent inhibition was determined by taking the ratio of the current measured at steady state in the presence of test article (ITest article) versus the control current (Icontrol), and expressed as: % inhibition=100−(ITest article/IControl)*100. When possible, a concentration-response curve was plotted and the data were fitted using Qpatch software to determine an IC50.
For orientation: The hERG channel carries a current that helps repolarise heart muscle cells.

Where [1] appears, read: extrapolated from single-point % inhibition, read-out: hERG IC50 (extrapolated from % activity shown).
The mark [2] stands for this setting: fit to a concentration-response curve, read-out: hERG IC50 (determined by curve fitting).

T1 sequence (P05164 279-745 limits assumed): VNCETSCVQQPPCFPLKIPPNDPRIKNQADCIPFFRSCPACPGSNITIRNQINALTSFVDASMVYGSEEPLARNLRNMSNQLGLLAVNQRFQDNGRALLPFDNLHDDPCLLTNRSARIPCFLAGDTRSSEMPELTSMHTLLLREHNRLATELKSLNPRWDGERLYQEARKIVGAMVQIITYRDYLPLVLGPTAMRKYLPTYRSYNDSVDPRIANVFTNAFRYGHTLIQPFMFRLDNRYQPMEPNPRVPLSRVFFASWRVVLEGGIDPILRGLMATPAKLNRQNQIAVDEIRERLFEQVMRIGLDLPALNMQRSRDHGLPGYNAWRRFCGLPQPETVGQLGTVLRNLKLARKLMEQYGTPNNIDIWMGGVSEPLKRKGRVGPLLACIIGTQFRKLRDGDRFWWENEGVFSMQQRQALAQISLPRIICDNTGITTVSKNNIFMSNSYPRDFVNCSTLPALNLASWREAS
T1 sequence (P05164 165-273 limits assumed): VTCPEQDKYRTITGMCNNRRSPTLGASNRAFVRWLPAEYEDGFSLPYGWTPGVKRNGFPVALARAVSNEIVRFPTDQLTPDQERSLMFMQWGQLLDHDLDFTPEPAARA

Take `COc1ccc(-c2cc(=O)[nH]c(=S)n2CC(=O)NCCN)c(OC)c1` [G, N-(2-aminoethyl)-2-[6-(2,4-dimethoxyphenyl)-4-oxo-2-thioxo-3,4-dihydropyrimidin-1(2H)-yl]acetamide]: the IC50 is 0.6 µM at MPO and 900 µM at hERG potassium channel (setting [1]). The “Therapeutic ratio hERG IC50/MPO IC50” value on hERG potassium channel turned out to be 1500. This molecule yielded an inhibition at 5 min, 300 µM against hERG potassium channel (human, pH 7.4) of 25%.
Consider `Cc1ccc(OCCO)c(-c2cc(=O)[nH]c(=S)n2CCN)c1` [Compound A, 1-(2-Aminoethyl)-6-(2-(2-hydroxyethoxy)-5-methylphenyl)-2-thioxo-2,3-dihydropyrimidin-4(1H)-one hydrochloride], for which the results for the IC50 against MPO and on hERG potassium channel (setting [1]) were 0.55 µM and 3030 µM, respectively. At hERG potassium channel (5515/41), the “hERG IC50/MPO IC50 safety ratio over compound C” value was determined as 135 times. Further, at hERG potassium channel (5515/162), the “hERG IC50/MPO IC50 safety ratio over compound D” value stood at 34 times. Further, on hERG potassium channel (5515/260), the “hERG IC50/MPO IC50 safety ratio over compound E” value was determined as 21 times. For the same molecule, the “hERG IC50/MPO IC50 safety ratio over compound F” value on hERG potassium channel (5515/900) is given as 6.1 times. The “hERG IC50/MPO IC50 safety ratio over compound G” value on hERG potassium channel (5515/1500) turned out to be 3.7 times. Further, the “Therapeutic ratio hERG IC50/MPO IC50” value at hERG potassium channel amounted to 5515. On hERG potassium channel (human, pH 7.4), this molecule returned an inhibition at 5 min, 300 µM of 9%.
As for `COc1ccc(C)cc1-c1cc(=O)[nH]c(=S)n1CC(N)=O` [Compound B], the IC50 on MPO stood at 2.5 µM.
`COc1ccc(Cl)cc1-c1cc(=O)[nH]c(=S)n1CC(N)=O` [F, 2-(6-(5-chloro-2-methoxyphenyl)-4-oxo-2-thioxo-3,4-dihydropyrimidin-1(2H)-yl)acetamide]: the IC50 at hERG potassium channel (setting [1]) was 1700 µM. On hERG potassium channel (human, pH 7.4), this molecule yielded an inhibition at 5 min, 300 µM of 15%.
For `NCCn1c(-c2cc(Cl)ccc2OCCO)cc(=O)[nH]c1=S` [Compound E], the IC50 is 1.3 µM against MPO and 335 µM at hERG potassium channel (setting [1]). In addition, on hERG potassium channel, the “Therapeutic ratio hERG IC50/MPO IC50” value is 260. Besides, the inhibition at 5 min, 100 µM against hERG potassium channel (human, pH 7.4) came to 23%.
On to `COc1ccc(C)cc1-c1cc(=O)[nH]c(=S)n1CCN` [D], for which the IC50 on MPO is 0.99 µM; at hERG potassium channel (setting [2]) it was 160 µM. In addition, the “Therapeutic ratio hERG IC50/MPO IC50” value at hERG potassium channel is listed as 162. This molecule showed an inhibition at 5 min, 100 µM at hERG potassium channel (human, pH 7.4) of 40%. The molecule also had an inhibition at 5 min, 300 µM on hERG potassium channel (human, pH 7.4) of 63%.
Regarding `COc1ccc(Cl)cc1-c1cc(=O)[nH]c(=S)n1CCN` [C], the IC50 was determined as 0.8 µM on MPO and 33 µM on hERG potassium channel (setting [2]). Moreover, the “Therapeutic ratio hERG IC50/MPO IC50” value on hERG potassium channel is reported as 41. The same molecule displayed an inhibition at 5 min, 30 µM on hERG potassium channel (human, pH 7.4, at 30 uM) of 49%. The inhibition at 5 min, 100 µM at hERG potassium channel (human, pH 7.4) is 75%.

By IC50 is commonly meant the concentration needed to halve the response being measured. In general, inhibition refers to the relative decrease from the control value, in per cent. Lower therefore signals a response near the control.
